Measurements as given in patent publication US10131652B2, “Pyrimidinyloxy benzene derivatives as herbicides” (E. I. DU PONT DE NEMOURS AND COMPANY, priority 2014, dated 2018).

Assays:
Assay in all cases: Test D pre-/postemergence plant response
Type in all cases: in vivo
[1] = test system: waterhemp (common waterhemp, Amaranthus rudis); conditions: Amaranthus tuberculatus, pre-emergence, Preemergence, scale 0 to 100 (0 no effect, 100 complete control), read-out: Plant response rating, Waterhemp
Summary of the method: (§1)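 Plants are held in a greenhouse 13 to 15 days after spraying, then injury is rated by eye relative to controls on a 0 to 100 scale. Treatments are preemergence on freshly sown loam/sand pots or postemergence at 1- to 4-leaf stage in peat-based medium; surfactant-containing solvent formulation.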

[2] = test system: Italian ryegrass (Lolium multiflorum); conditions: Lolium multiflorum, pre-emergence, Preemergence, scale 0 to 100 (0 no effect, 100 complete control), read-out: Plant response rating, Ryegrass, Italian
Summary of the method: as §1

[3] = test system: velvetleaf (Abutilon theophrasti); conditions: Abutilon theophrasti, pre-emergence, Preemergence, scale 0 to 100 (0 no effect, 100 complete control), read-out: Plant response rating, Velvetleaf
Summary of the method: as §1

[4] = test system: pigweed (Amaranthus retroflexus); conditions: Amaranthus retroflexus, pre-emergence, Preemergence, scale 0 to 100 (0 no effect, 100 complete control), read-out: Plant response rating, Pigweed
Summary of the method: as §1

[5] = test system: corn (Zea mays); conditions: Zea mays, pre-emergence, Preemergence, scale 0 to 100 (0 no effect, 100 complete control)
Summary of the method: as §1

[6] = test system: soybean (Glycine max); conditions: Glycine max, pre-emergence, Preemergence, scale 0 to 100 (0 no effect, 100 complete control), read-out: Plant response rating, Soybean
Summary of the method: as §1

[7] = test system: giant foxtail (Setaria faberii); conditions: Setaria faberi, pre-emergence, Preemergence, scale 0 to 100 (0 no effect, 100 complete control), read-out: Plant response rating, Foxtail, Giant
Summary of the method: as §1

[8] = test system: morningglory (Ipomoea coccinea); conditions: Ipomoea, pre-emergence, Preemergence, scale 0 to 100 (0 no effect, 100 complete control), read-out: Plant response rating, Morningglory
Summary of the method: as §1

[9] = test system: barnyardgrass (Echinochloa crus-galli); conditions: Echinochloa crus-galli, pre-emergence, Preemergence
Summary of the method: as §1

[10] = test system: blackgrass (Alopecurus myosuroides); conditions: Alopecurus myosuroides, pre-emergence, Preemergence, scale 0 to 100 (0 no effect, 100 complete control), read-out: Plant response rating, Blackgrass
Summary of the method: as §1

[11] = test system: lambsquarters (Chenopodium album); conditions: Chenopodium album, pre-emergence, Preemergence, scale 0 to 100 (0 no effect, 100 complete control), read-out: Plant response rating, Lambsquarters
Summary of the method: as §1

[12] = test system: large (Lg) crabgrass (Digitaria sanguinalis); conditions: Digitaria sanguinalis, pre-emergence, Preemergence, scale 0 to 100 (0 no effect, 100 complete control), read-out: Plant response rating, Crabgrass, Large
Summary of the method: as §1

`FCc1cc(-c2ccccc2Oc2ncc(Cl)cn2)no1` [Compound 32, 5-chloro-2-[2-[5-(fluoromethyl)-3-isoxazolyl]phenoxy]pyrimidine] gave a pest or weed control at 8 g/ha ([1]; 8 g ai/ha) of 100%, a pest or weed control at 16 g/ha ([1]; 16 g ai/ha) of 100% and a pest or weed control at 31 g/ha ([1]; 31 g ai/ha) of 100%. For the same compound, the pest or weed control at 62 g/ha ([1]; 62 g ai/ha) was 98%, the pest or weed control at 8 g/ha ([2]; 8 g ai/ha) was 0% and the pest or weed control at 16 g/ha ([2]; 16 g ai/ha) was 0%. For the same compound, the pest or weed control at 31 g/ha ([2]; 31 g ai/ha) was 0%, the pest or weed control at 62 g/ha ([2]; 62 g ai/ha) was 10% and the pest or weed control at 8 g/ha ([3]; 8 g ai/ha) was 5%. For the same compound, the pest or weed control at 16 g/ha ([3]; 16 g ai/ha) was 40%, the pest or weed control at 31 g/ha ([3]; 31 g ai/ha) was 55% and the pest or weed control at 62 g/ha ([3]; 62 g ai/ha) was 85%. The pest or weed control at 8 g/ha ([4]; 8 g ai/ha) was 100%, the pest or weed control at 16 g/ha ([4]; 16 g ai/ha) was 100% and the pest or weed control at 31 g/ha ([4]; 31 g ai/ha) was 98%. It also gave a pest or weed control at 62 g/ha ([4]; 62 g ai/ha) of 100%, a Corn plant response rating (crop injury, 0 = no effect, 100 = complete kill) at 8 g/ha ([5]; 8 g ai/ha) of 0% and a Corn plant response rating (crop injury, 0 = no effect, 100 = complete kill) at 16 g/ha ([5]; 16 g ai/ha) of 0%. It also gave a Corn plant response rating (crop injury, 0 = no effect, 100 = complete kill) at 31 g/ha ([5]; 31 g ai/ha) of 0%, a Corn plant response rating (crop injury, 0 = no effect, 100 = complete kill) at 62 g/ha ([5]; 62 g ai/ha) of 0% and a plant injury at 8 g/ha ([6]; 8 g ai/ha) of 10%. The plant injury at 16 g/ha ([6]; 16 g ai/ha) was 15%, the plant injury at 31 g/ha ([6]; 31 g ai/ha) was 25% and the plant injury at 62 g/ha ([6]; 62 g ai/ha) was 65%. It also gave a pest or weed control at 8 g/ha ([7]; 8 g ai/ha) of 0%, a pest or weed control at 16 g/ha ([7]; 16 g ai/ha) of 35% and a pest or weed control at 31 g/ha ([7]; 31 g ai/ha) of 85%. It also gave a pest or weed control at 62 g/ha ([7]; 62 g ai/ha) of 95%, a pest or weed control at 8 g/ha ([8]; 8 g ai/ha) of 0% and a pest or weed control at 16 g/ha ([8]; 16 g ai/ha) of 0%. For the same compound, the pest or weed control at 31 g/ha ([8]; 31 g ai/ha) was 5%, the pest or weed control at 62 g/ha ([8]; 62 g ai/ha) was 0% and the pest or weed control at 62 g/ha ([9]; 62 g ai/ha, read-out: Plant response rating (scale 0 to 100), Barnyardgrass) was 98%. For the same compound, the pest or weed control at 8 g/ha ([9]; 8 g ai/ha, scale 0 to 100 (0 no effect, 100 complete control), read-out: Plant response rating, Barnyardgrass) was 0%, the pest or weed control at 16 g/ha ([9]; 16 g ai/ha, scale 0 to 100 (0 no effect, 100 complete control), read-out: Plant response rating, Barnyardgrass) was 5% and the pest or weed control at 31 g/ha ([9]; 31 g ai/ha, scale 0 to 100 (0 no effect, 100 complete control), read-out: Plant response rating, Barnyardgrass) was 55%. The pest or weed control at 8 g/ha ([10]; 8 g ai/ha) was 0%, the pest or weed control at 16 g/ha ([10]; 16 g ai/ha) was 0% and the pest or weed control at 31 g/ha ([10]; 31 g ai/ha) was 30%. It also gave a pest or weed control at 62 g/ha ([10]; 62 g ai/ha) of 35%, a pest or weed control at 8 g/ha ([11]; 8 g ai/ha) of 95% and a pest or weed control at 16 g/ha ([11]; 16 g ai/ha) of 95%. For the same compound, the pest or weed control at 31 g/ha ([11]; 31 g ai/ha) was 98%, the pest or weed control at 62 g/ha ([11]; 62 g ai/ha) was 100% and the pest or weed control at 8 g/ha ([12]; 8 g ai/ha) was 100%. The pest or weed control at 16 g/ha ([12]; 16 g ai/ha) was 90%, the pest or weed control at 31 g/ha ([12]; 31 g ai/ha) was 98% and the pest or weed control at 62 g/ha ([12]; 62 g ai/ha) was 100%.
